{"source": "paper PMC11750451", "about": "“Diarylamidine activation of a brachiopod DEG/ENaC/ASIC channel” (The Journal of Biological Chemistry, 2024)", "key": {"[1]": {"biological_target": "DiaaNaC (diarylamidine-activated Na+ channel) (Novocrania anomala, UniProt A0AAU8BSW0)", "sequence (A0AAU8BSW0 entry or part of it)": "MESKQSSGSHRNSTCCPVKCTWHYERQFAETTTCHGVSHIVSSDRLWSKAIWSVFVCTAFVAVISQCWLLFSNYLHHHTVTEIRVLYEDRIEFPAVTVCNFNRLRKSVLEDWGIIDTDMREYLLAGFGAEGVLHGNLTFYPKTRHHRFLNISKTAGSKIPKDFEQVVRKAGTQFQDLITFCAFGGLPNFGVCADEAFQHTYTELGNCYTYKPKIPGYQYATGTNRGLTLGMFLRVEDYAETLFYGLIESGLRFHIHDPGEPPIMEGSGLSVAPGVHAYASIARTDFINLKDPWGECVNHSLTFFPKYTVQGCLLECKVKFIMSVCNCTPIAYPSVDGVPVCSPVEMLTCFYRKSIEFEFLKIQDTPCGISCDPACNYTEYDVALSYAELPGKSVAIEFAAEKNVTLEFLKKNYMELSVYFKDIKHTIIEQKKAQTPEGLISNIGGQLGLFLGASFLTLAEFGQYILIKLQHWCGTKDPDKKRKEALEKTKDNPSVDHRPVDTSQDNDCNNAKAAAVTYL", "experiment": "Two-electrode voltage clamp of Xenopus laevis oocytes expressing WT DiaaNaC", "format": "cell-based", "conditions": "for inward currents in absence of extracellular Na+: 1 mM compound, 140 KCl instead of NaCl; for activation of DiaaNaC (agonist activity): compound at 1 mM; for reversal potential (Erev) of pentamidine-gated current: n = 5", "method": "(§1) Before electrophysiological recordings or surface expression determination, the oocytes were cultured for 3 days at 18 °C in 50% Leibowitz medium (L1518, Merck), supplemented with 0.25 mg/ml gentamicin, 1 mM L-glutamine, and 15 mM Hepes (pH 7.6). For surface expression detection, mouse anti-Myc tag monoclonal IgG1 antibody (MA121316, Fisher Scientific) was used to detect the myc tag attached to the 3′-end of all the constructs used in this work, and the protocol previously used in our lab was followed ([47]) using a Zeiss Axio Scope A1 microscope. The intensity of the expression signal was quantified by tracing a perpendicular line across the oocyte membrane and measuring the gray values with ImageJ software ([48]).\nWhole cell currents were recorded from oocytes by two-electrode voltage clamp using an OC-725D amplifier (Warner Instruments) controlled via an Axon Digitata 1550B interface and pClamp v11 (Molecular Devices), acquired at 1 kHz, and filtered at 200 Hz. Currents were analyzed in pClamp v10.7 software (Molecular Devices) and additionally filtered at 10 Hz for display in figures. Oocytes were clamped at −60 mV, unless otherwise indicated, and continuously perfused with a bath solution containing (in mM): 140 NaCl, 1.8 BaCl2, and 10 Hepes. The pH was adjusted to 7.5 with NaOH, HCl, or KOH, as appropriate. For current–voltage relationships where K^+ replaced Na^+, KCl replaced NaCl in the above bath solution. In most experiments, activating solution was applied to oocytes in between resting periods of at least 30 to 60 s. After retrieving current amplitude from pClamp, all data were analyzed in Prism v9 (GraphPad Software). Currents were normalized by dividing by the maximum current at that oocyte, giving “I/Imax” in most concentration–response graphs. For graphs in figures and for calculating half-maximal effective (or inhibitory) concentration (EC50 or IC50) values, variable slope nonlinear regression was used in Prism v9, with the equation Y = Bottom + (Top-Bottom)/ […] 10^∧((LogEC50-X)∗HillSlope)), and maximum was constrained to one and minimum to zero. Curves in figures are fit to the mean data points. EC50 and IC50 values reported in text and used in statistical comparisons are means from curve fits to data on individual oocytes."}, "DiaaNaC G6′S": {"system": "DiaaNaC G6′S", "experiment": "Two-electrode voltage clamp, DiaaNaC G6′S mutant in oocytes", "format": "cell-based, Novocrania anomala", "from_the_text": "(§2) The DiaaNaC full-length coding sequence was amplified by PCR from N. anomala cDNA and subcloned via SalI and BamHI sites into a pSP64 (polyA) vector (P1241, Promega) modified to contain the X. laevis globin 5′ and 3′ UTRs and a C-terminal Myc-tag linked to the final DiaaNaC residue via Gly-Ser linker (the BamHI site) (see ([20]) for full vector sequence). The cDNA sequence was deposited in NCBI GenBank accession number PP942623. Recombinant PCR with Phusion High-Fidelity DNA polymerase (F-549L, Thermo Fisher Scientific) was used to perform site-directed mutagenesis, as described previously ([45]). […] EcoRI (FD0274, Thermo Fisher Scientific) was used to linearize the cDNAs via a site shortly after the poly(A) sequence, and the mMESSAGE mMACHINE SP6 Transcription Kit (AM1340, Thermo Fisher Scientific) was used to synthesize cRNA.\nas §1\n(§3) Whole cell currents were recorded from oocytes by two-electrode voltage clamp using an OC-725D amplifier (Warner Instruments) controlled via an Axon Digitata 1550B interface and pClamp v11 (Molecular Devices), acquired at 1 kHz, and filtered at 200 Hz. Currents were analyzed in pClamp v10.7 software (Molecular Devices) and additionally filtered at 10 Hz for display in figures. […] After retrieving current amplitude from pClamp, all data were analyzed in Prism v9 (GraphPad Software). […]"}, "DiaaNaC L70S": {"system": "DiaaNaC L70S", "experiment": "Two-electrode voltage clamp, DiaaNaC L70S mutant in oocytes", "format": "cell-based, Novocrania anomala", "conditions": "0 mV", "from_the_text": "The DiaaNaC full-length coding sequence was amplified by PCR from N. anomala cDNA and subcloned via SalI and BamHI sites into a pSP64 (polyA) vector (P1241, Promega) modified to contain the X. laevis globin 5′ and 3′ UTRs and a C-terminal Myc-tag linked to the final DiaaNaC residue via Gly-Ser linker (the BamHI site) (see ([20]) for full vector sequence). The cDNA sequence was deposited in NCBI GenBank accession number PP942623. Recombinant PCR with Phusion High-Fidelity DNA polymerase (F-549L, Thermo Fisher Scientific) was used to perform site-directed mutagenesis, as described previously ([45]). […]\nBefore electrophysiological recordings or surface expression determination, the oocytes were cultured for 3 days at 18 °C in 50% Leibowitz medium (L1518, Merck), supplemented with 0.25 mg/ml gentamicin, 1 mM L-glutamine, and 15 mM Hepes (pH 7.6). […] The intensity of the expression signal was quantified by tracing a perpendicular line across the oocyte membrane and measuring the gray values with ImageJ software ([48]).\nWhole cell currents were recorded from oocytes by two-electrode voltage clamp using an OC-725D amplifier (Warner Instruments) controlled via an Axon Digitata 1550B interface and pClamp v11 (Molecular Devices), acquired at 1 kHz, and filtered at 200 Hz. Currents were analyzed in pClamp v10.7 software (Molecular Devices) and additionally filtered at 10 Hz for display in figures. […]"}, "DiaaNaC E82A": {"system": "DiaaNaC E82A", "experiment": "Two-electrode voltage clamp, DiaaNaC E82A mutant in oocytes", "format": "cell-based, Novocrania anomala", "from_the_text": "as §2, §1, §3"}, "DiaaNaC E358A": {"system": "DiaaNaC E358A", "experiment": "Two-electrode voltage clamp, DiaaNaC E358A mutant in oocytes", "format": "cell-based, Novocrania anomala", "from_the_text": "as §2, §1, §3"}}, "note": "Entries after “also recorded” stand apart in the source; their conditions may differ. Read-outs that look alike come from different tables or passages of the source.", "data": [{"smiles": "N=C(N)c1ccc(-c2cc3ccc(C(=N)N)cc3[nH]2)cc1", "note": "[DAPI, 4′,6-diamidino-2-phenylindole]", "values": [{"measurement": "inward currents in absence of extracellular Na+", "setting": "[1]; −60 mV", "result": "tiny, if any"}]}, {"smiles": "Cc1nc(N=C(N)N)nc2ccccc12", "note": "[GMQ, 2-(4-methylquinazolin-2-yl)guanidine]", "values": [{"measurement": "activation of DiaaNaC (agonist activity)", "setting": "[1]; −60 mV", "result": "none of these compounds activated"}]}, {"smiles": "C[C@H](CCC(=O)O)[C@H]1CC[C@H]2[C@@H]3[C@@H](O)C[C@@H]4C[C@H](O)CC[C@]4(C)[C@H]3CC[C@]12C", "note": "[Ursodeoxycholic acid, ursodeoxycholic acid]", "values": [{"measurement": "current activated", "setting": "[1]; UDCA 2 mM, −60 mV, n = 7", "result": "73.1 ± 10", "unit": "nA"}]}, {"smiles": "NC(N)=NCCCCN=C(N)N", "note": "[arcaine]", "values": [{"measurement": "activation of DiaaNaC (agonist activity)", "setting": "[1]; −60 mV", "result": "neither activated; also recorded: none of these compounds activated"}]}, {"smiles": "N=C(N)c1ccc(/N=N/Nc2ccc(C(=N)N)cc2)cc1", "note": "[diminazene]", "values": [{"measurement": "inward currents in absence of extracellular Na+", "setting": "[1]; −60 mV", "result": "tiny, if any"}, {"measurement": "concentration that activates DiaaNaC", "setting": "[1]; WT", "result": "≥ 300", "unit": "µM"}, {"measurement": "concentration that blocks DiaaNaC", "setting": "[1]; WT", "result": "≥ 1", "unit": "mM"}, {"measurement": "effect on constitutive current", "setting": "[1]; diminazene 1 mM, absence of Ca2+", "result": "without inhibiting the constitutive current"}, {"measurement": "inward currents activated", "setting": "[1]; diminazene 1 mM, absence of Ca2+, −60 mV, n = 7", "result": "1.0 ± 0.2", "unit": "μA"}, {"measurement": "EC50", "setting": "[1]; holding potential 0 mV, WT, read-out: diminazene EC50 for activation", "result": "409 ± 71", "unit": "µM"}, {"measurement": "EC50", "setting": "[1]; −60 mV, absence of Ca2+, WT, read-out: EC50 for activation of DiaaNaC", "result": 287, "unit": "µM"}, {"measurement": "inhibition at 1000 µM", "setting": "[1]; −100 mV, 1 mM diminazene, read-out: block of the agonist-gated current", "result": "~100", "unit": "%"}, {"measurement": "diminazene potency compared to WT", "setting": "DiaaNaC G6′S; 0 mV", "result": "significantly reduced"}, {"measurement": "diminazene agonist potency compared to WT", "setting": "DiaaNaC G6′S; −60 mV", "result": "decrease in agonist potency"}, {"measurement": "channel block by diminazene", "setting": "DiaaNaC G6′S; −60 mV, even at 3 mM diminazene", "result": "block was not evident"}, {"measurement": "diminazene-gated currents", "setting": "DiaaNaC L70S", "result": "abolished"}, {"measurement": "diminazene potency compared to WT", "setting": "DiaaNaC E82A; 0 mV", "result": "significantly reduced"}, {"measurement": "diminazene agonist potency compared to WT", "setting": "DiaaNaC E82A; −60 mV", "result": "decrease in agonist potency"}, {"measurement": "channel block by diminazene", "setting": "DiaaNaC E82A; −60 mV, 1 and 3 mM diminazene", "result": "noticeable block develops"}, {"measurement": "diminazene potency compared to WT", "setting": "DiaaNaC E358A; 0 mV", "result": "significantly reduced"}, {"measurement": "diminazene agonist potency compared to WT", "setting": "DiaaNaC E358A; −60 mV", "result": "decrease in agonist potency"}, {"measurement": "diminazene concentration at which block occurs", "setting": "DiaaNaC E358A; −60 mV", "result": 3, "unit": "mM"}]}, {"smiles": "N=C(N)c1ccc(OCCCCCOc2ccc(C(=N)N)cc2)cc1", "note": "[pentamidine]", "values": [{"measurement": "reversal potential (Erev) of pentamidine-gated current", "setting": "[1]; 150 μM pentamidine, extracellular NaCl", "result": "53.5 ± 5.0", "unit": "mV"}, {"measurement": "reversal potential (Erev) of pentamidine-gated current", "setting": "[1]; 450 μM pentamidine, extracellular NaCl", "result": "57.6 ± 3.4", "unit": "mV"}, {"measurement": "pentamidine EC50 in the presence of amiloride", "setting": "[1]; 600 μM amiloride", "result": "not significantly altered"}, {"measurement": "EC50", "setting": "[1]; EC50 for activation of DiaaNaC, −60 mV, absence of Ca2+, WT", "result": "592 ± 30.7", "unit": "µM"}, {"measurement": "reversal potential (Erev) of pentamidine-gated current", "setting": "[1]; K+ the only monovalent cation in extracellular solution, pentamidine 450 μM, estimated", "result": "−12.2 ± 4.6", "unit": "mV"}, {"measurement": "EC50", "setting": "[1]; pentamidine EC50, +10 mV, n = 4", "result": "959 ± 80.7", "unit": "µM"}, {"measurement": "EC50", "setting": "[1]; pentamidine EC50, +80 mV, n = 4", "result": "1030 ± 101", "unit": "µM"}, {"measurement": "EC50", "setting": "[1]; pentamidine EC50, −100 mV", "result": "471 ± 38.4", "unit": "µM"}, {"measurement": "EC50", "setting": "[1]; pentamidine EC50 with Ca2+, 1.8 mM Ca2+, n = 6", "result": "1000 ± 100", "unit": "µM"}, {"measurement": "block of the agonist-gated current", "setting": "[1]; −100 mV, 1 mM pentamidine", "result": "no such block"}]}, {"smiles": "NCCCCNCCCN", "note": "[spermidine]", "values": [{"measurement": "activation of DiaaNaC (agonist activity)", "setting": "[1]; −60 mV", "result": "neither activated"}]}, {"smiles": "NCCCNCCCCNCCCN", "note": "[spermine]", "values": [{"measurement": "activation of DiaaNaC (agonist activity)", "setting": "[1]; −60 mV", "result": "neither activated; also recorded: none of these compounds activated"}]}]}
